{"source": "paper PMC10501326", "about": "“A Phase I Study of the Pan-Notch Inhibitor CB-103 for Patients with Advanced Adenoid Cystic Carcinoma and Other Tumors” (Cancer Research Communications, 2023)", "system": "advanced solid tumors, adenoid cystic carcinoma (ACC)", "assay": "Antitumor efficacy and survival (RECIST v1.1 response, CBR, PFS, OS)", "assay_type": "in vivo, human", "description": "The study enrolled adults with histologically confirmed, locally advanced and/or metastatic solid tumors who had progressed on at least one line of prior systemic therapy (except for ACC) and relapsed/refractory T-ALL/LBL for whom no standard therapy was available. In dose escalation, participants with solid tumors with known or frequent Notch pathway–activating mutations were eligible (breast cancer, gastrointestinal tumors, hepatocellular carcinoma, osteosarcoma, malignant glomus tumor, and ACC), while the confirmatory cohort planned to enroll participants with selected tumor types (including T-ALL/LBL) and confirmed Notch pathway activation. Key eligibility criteria included patients ≥18 years of age with evaluable disease, Eastern Cooperative Oncology Group (ECOG) performance status 0–1, able to swallow capsules, and adequate organ function. Participants were excluded if they had clinically significant cardiac disease or thromboembolic events within the preceding 6 months, and drugs prolonging the QTc were avoided. A complete list of eligibility criteria is outlined in the Supplementary Materials and Methods.\nSafety was assessed via monitoring of DLTs during the first treatment cycle, and of AEs, physical exam, and clinical lab results (hematology, coagulation, blood chemistry, urinalysis, and cardiac markers) throughout the study (Supplementary Table S1). 12-lead electrocardiograms and Holter safety monitoring with periodic cardiac imaging was employed. Efficacy assessments used RECIST v1.1 applied to CT/MRI scans performed at screening and every 8 weeks; or evaluated complete remission with complete hematologic recovery by National Comprehensive Cancer Network guideline criteria for T-ALL/T-LBL. Adherence to study drug administration was evaluated using both patient diaries and capsule counts.\nThe primary endpoint for dose escalation was the number of patients experiencing DLT during the first 28-day cycle of CB-103 and for the confirmatory phase, the incidence rate, severity, and relationship of AEs to CB-103. Secondary endpoints included assessment of clinical benefit rate [CBR; defined as achieving complete and/or partial response and/or stable disease (SD) at prespecified benchmarks], duration of response, progression-free survival (PFS) and overall survival (OS), and plasma pharmacokinetics.\nThe objective of the BLRM design ([10]) was to determine the MTD defined as the highest dose with less than 25% risk of the true DLT rate being above 33%. The MTD was considered reached if one of the following criteria was fulfilled: (i) if the posterior probability of the true DLT rate in the target interval (16%–33%) of the MTD was >50%, and (ii) at least 6 patients were treated at the MTD. Under this model, and accounting for dropouts and some additional patients enrolled to each cohort, approximately 55 patients were anticipated to enroll in dose escalation and approximately 45 patients in the confirmatory phase. Data were reported using 95% confidence intervals (CI) and survival endpoints (PFS, OS) are reported from the time of first treatment to the first of progression or death summarized by Kaplan–Meier estimates. All statistical analyses were analyzed using SAS v9.4 software.", "key": {"[1]": {"conditions": "ACC confirmatory cohort (n = 12), 500 mg once daily"}, "[2]": {"conditions": "All solid tumor patients (n = 76)"}}, "note": "Values joined by “and” are separate entries in the source; they are usually repeats but may differ in a detail not shown here. Identical values can stand only once.", "data": [{"smiles": "CC(C)(C)c1ccc(Oc2ccc(N)cn2)cc1", "note": "[CB-103]", "values": [{"measurement": "3-month PFS (95% CI)", "setting": "[1]", "result": "10.9 (0.6–38.0)"}, {"measurement": "Best overall response: Complete response", "setting": "[1]", "result": "0 n, %"}, {"measurement": "Best overall response: Partial response", "setting": "[1]", "result": "0 n, %"}, {"measurement": "Best overall response: Progressive disease", "setting": "[1]", "result": "7 (58) n, %"}, {"measurement": "Best overall response: Stable disease", "setting": "[1]", "result": "3 (25) n, %"}, {"measurement": "Best overall response: Unevaluable", "setting": "[1]", "result": "2 (17) n, %"}, {"measurement": "Clinical benefit rate, 3 months (95% CI)", "setting": "[1]", "result": "25.0 (5.5–57.2) — — %"}, {"measurement": "Median OS (95% CI)", "setting": "[1]", "result": "5.4 (1.3–5.4) months"}, {"measurement": "Median PFS (95% CI)", "setting": "[1]", "result": "1.4 (0.8–2.3) months"}, {"measurement": "Overall survival: No. of deaths", "setting": "[1]", "result": "4 (33) n, %"}, {"measurement": "Progression-free survival: No. of events", "setting": "[1]", "result": "10 (83) n, %"}, {"measurement": "3-month PFS (95% CI)", "setting": "All patients with ACC (n = 40)", "result": "46.8 (30.4–61.7)"}, {"measurement": "6-month OS (95% CI)", "setting": "All patients with ACC (n = 40)", "result": "72.4 (53.1–84.8) %"}, {"measurement": "6-month PFS (95% CI)", "setting": "All patients with ACC (n = 40)", "result": "18.6 (7.9–32.8) %"}, {"measurement": "9-month PFS (95% CI)", "setting": "All patients with ACC (n = 40)", "result": "6.2 (1.1–17.8)"}, {"measurement": "12-month OS (95% CI)", "setting": "All patients with ACC (n = 40)", "result": "57.3 (37.5–73.0) %"}, {"measurement": "12-month PFS (95% CI)", "setting": "All patients with ACC (n = 40)", "result": "6.2 (1.1–17.8)"}, {"measurement": "Best overall response: Complete response", "setting": "All patients with ACC (n = 40)", "result": "0 n, %"}, {"measurement": "Best overall response: Partial response", "setting": "All patients with ACC (n = 40)", "result": "0 n, %"}, {"measurement": "Best overall response: Progressive disease", "setting": "All patients with ACC (n = 40)", "result": "13 (33) n, %"}, {"measurement": "Best overall response: Stable disease", "setting": "All patients with ACC (n = 40)", "result": "23 n, % and 23 (58%) n, % and 23 (58) n, %"}, {"measurement": "Best overall response: Unevaluable", "setting": "All patients with ACC (n = 40)", "result": "4 (10) n, %"}, {"measurement": "Clinical benefit rate, 3 months (95% CI)", "setting": "All patients with ACC (n = 40)", "result": "57.5 (40.9–73.0) %"}, {"measurement": "Clinical benefit rate, 6 months (95% CI)", "setting": "All patients with ACC (n = 40)", "result": "27.5 (14.6–43.9) %"}, {"measurement": "Clinical benefit rate, 9 months (95% CI)", "setting": "All patients with ACC (n = 40)", "result": "2.5 (0.1–13.2) %"}, {"measurement": "Median OS (95% CI)", "setting": "All patients with ACC (n = 40)", "result": 18.4, "unit": "months"}, {"measurement": "Median PFS (95% CI)", "setting": "All patients with ACC (n = 40)", "result": "2.5 (1.5–3.7) months"}, {"measurement": "Overall survival: No. of deaths", "setting": "All patients with ACC (n = 40)", "result": "15 (38) n, %"}, {"measurement": "Progression-free survival: No. of events", "setting": "All patients with ACC (n = 40)", "result": "35 (88) n, %"}, {"measurement": "3-month PFS (95% CI)", "setting": "[2]", "result": "38.7 (26.5–50.6)"}, {"measurement": "6-month OS (95% CI)", "setting": "[2]", "result": "68.4 (54.4–78.9) %"}, {"measurement": "6-month PFS (95% CI)", "setting": "[2]", "result": "15.5 (7.5–26.0) %"}, {"measurement": "9-month PFS (95% CI)", "setting": "[2]", "result": "5.8 (1.7–14.3)"}, {"measurement": "12-month OS (95% CI)", "setting": "[2]", "result": "41.6 (28.0–54.7) %"}, {"measurement": "12-month PFS (95% CI)", "setting": "[2]", "result": "3.9 (0.7–11.6)"}, {"measurement": "Best overall response: Complete response", "setting": "[2]", "result": "0 n, %"}, {"measurement": "Best overall response: Partial response", "setting": "[2]", "result": "0 n, %"}, {"measurement": "Best overall response: Progressive disease", "setting": "[2]", "result": "29 (38) n, %"}, {"measurement": "Best overall response: Stable disease", "setting": "[2]", "result": "37 (49%) n, % and 37 (49) n, %"}, {"measurement": "Best overall response: Unevaluable", "setting": "[2]", "result": "10 (13) n, %"}, {"measurement": "Clinical benefit rate, 3 months (95% CI)", "setting": "[2]", "result": "48.7 (37.0–60.4) %"}, {"measurement": "Clinical benefit rate, 6 months (95% CI)", "setting": "[2]", "result": "15.8 (8.4–26.0) %"}, {"measurement": "Clinical benefit rate, 9 months (95% CI)", "setting": "[2]", "result": "1.3 (0.0–7.1) %"}, {"measurement": "Median OS (95% CI)", "setting": "[2]", "result": "9.2 (6.3–18.4) months"}, {"measurement": "Median PFS (95% CI)", "setting": "[2]", "result": "1.9 (1.4–3.2) months"}, {"measurement": "Overall survival: No. of deaths", "setting": "[2]", "result": "33 (43%) n, % and 33 (43) n, %"}, {"measurement": "Progression-free survival: No. of events", "setting": "[2]", "result": "59 (78) n, %"}, {"measurement": "Objective responses", "setting": "all 76 solid tumor patients", "result": "no objective responses"}, {"measurement": "Duration of stable disease on study", "setting": "case: locoregionally recurrent ACC, NOTCH-activating mutation present", "result": 3, "unit": "months"}, {"measurement": "Tumor regression in right parapharyngeal mass", "setting": "case: locoregionally recurrent ACC, NOTCH-activating mutation present (30 to 25 mm)", "result": "−17", "unit": "%"}, {"measurement": "Tumor regression in dominant liver lesion", "setting": "case: patient with metastatic ACC with rapid progression prior to study entry (26.1–19.4 mm)", "result": "−25.7", "unit": "%"}, {"measurement": "Duration of stable disease on study", "setting": "case: patient with metastatic ACC, dominant liver lesion", "result": 8, "unit": "months"}, {"measurement": "Median OS", "setting": "heavily pretreated ACC cohort", "result": "under 2 years"}, {"measurement": "Duration of SD", "setting": "one patient, NOTCH1-activated metastatic ACC with tumor BCL2 overexpression, 250 mg twice daily", "result": 3, "unit": "months"}, {"measurement": "ACC patients exhibiting SD", "setting": "patients with ACC (n = 40)", "result": 58, "unit": "%"}]}]}
